The text below walks through data of patent publication US8022225B2, “Triazole derivative” (Taisho Pharmaceutical Co., Ltd, priority 2004, dated 2011).

For assay [1], the target named is T1, human Edg-1(S1P1) (Homo sapiens, UniProt P21453).
T1 construct: expressed in transfected cells; host or cells: HEK-293
The experiment in a line: Cell system binding test: inhibition of [3H]-S1P binding to Edg-1(S1P1) gene transferred HEK-293 cells. The following applies: [3H]-S1P 10 nM.

Assay [2] has as its target T1, human Edg-1(S1P1). The assay can be described thus: Membrane system binding test: inhibition of [33P]-S1P binding to the membrane fraction of Edg-1(S1P1) gene transferred HEK-293 cells. The following applies: [33P]-S1P 0.1 nM. Put shortly: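 Membranes from HEK-293 cells transfected with Edg-1(S1P1) incubated 1 h at 30 °C with 0.1 nM [^33P]-S1P and compound at 10^−5 M (0.1% DMSO), pH 7.4 buffer with fatty acid-free BSA. Filter-bound radioactivity counted; inhibition rate calculated against no-compound binding, with untransfected-cell background subtracted.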

Setting [3] is: 10 μM compound, read-out: Cell system binding test % inhibition (10 μM).
The mark [4] stands for this setting: 10 μM compound, membrane fraction of Edg-1(S1P1) gene transferred HEK-293 cells, read-out: Membrane system binding test % inhibition (10 μM).
Where [5] appears, read: test compound 10^-5 M, 1 hour, read-out: Edg-1(S1P1) binding inhibition rate (cell system binding test).
Where [6] appears, read: test compound 10^-5 M, 1 hour at 30° C., HEK-293 membrane fraction, read-out: Edg-1(S1P1) binding inhibition rate (membrane system binding test).

T1 sequence (P21453 whole entry): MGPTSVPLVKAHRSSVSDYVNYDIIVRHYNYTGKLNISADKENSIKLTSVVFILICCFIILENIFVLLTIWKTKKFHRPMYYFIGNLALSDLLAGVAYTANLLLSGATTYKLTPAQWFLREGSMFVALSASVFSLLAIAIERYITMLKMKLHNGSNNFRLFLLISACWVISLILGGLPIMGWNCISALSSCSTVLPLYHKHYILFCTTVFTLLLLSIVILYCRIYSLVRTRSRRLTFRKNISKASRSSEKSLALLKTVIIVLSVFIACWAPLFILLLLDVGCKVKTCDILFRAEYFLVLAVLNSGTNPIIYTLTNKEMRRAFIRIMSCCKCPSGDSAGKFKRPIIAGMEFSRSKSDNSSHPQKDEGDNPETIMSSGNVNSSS

For the compound `CCOc1nnc([C@@H](C)NS(=O)(=O)c2ccc3ccccc3c2)n1CC` [Compound 402], the inhibition at 10 µM was 90.4% in assay [1] (setting [3]) and 95.8% in assay [2] (setting [4]).
In the case of `CCn1c(OCC2CCCCC2)nnc1[C@@H](C)NS(=O)(=O)c1ccc(Cl)cc1` [Compound 378], the inhibition at 10 µM in assay [1] (setting [3]) came out at 103%; in assay [2] (setting [4]) it was 87.2%.
For the compound `CCn1c(OC)nnc1[C@@H](C)NS(=O)(=O)c1cc(F)c(Cl)cc1F` [Compound 289], the inhibition at 10 µM in assay [1] (setting [3]) came to 102%; in assay [2] (setting [4]), 63.6%.
Taken in the same sequence, the figures for `CCn1c(OC)nnc1[C@@H](C)NS(=O)(=O)c1cc(C)sc1C` [Compound 367] were 97% and 41.8%.
Consider `CCn1c(OC)nnc1[C@@H](C)NS(=O)(=O)c1ccccc1[N+](=O)[O-]` [Compound 231], for which the inhibition at 10 µM came out at 96.6% in assay [1] (setting [3]) and 40.3% in assay [2] (setting [4]).
Taken in the same sequence, the figures for `CCn1c(OC)nnc1[C@@H](C)NS(=O)(=O)c1ccc(C(C)C)cc1` [Compound 282] were 92.7% and 48.1%.
With `CCn1c(OCC(F)(F)F)nnc1[C@@H](C)NS(=O)(=O)c1ccc(I)cc1` [Compound 511], the inhibition at 10 µM was determined as 99% in assay [1] (setting [5]) and 85.4% in assay [2] (setting [6]).
For `CCn1c(OC)nnc1[C@@H](C)NS(=O)(=O)c1cc(F)c(F)c(F)c1` [Compound 313], the inhibition at 10 µM in assay [1] (setting [3]) stood at 100%; in assay [2] (setting [4]), 93.2%.
For `CCn1c(SC(C)C)nnc1[C@@H](C)NS(=O)(=O)c1ccc(Cl)cc1` [Compound 54] the same measures were 88.7% and 105%.
For `CCn1c(SCc2ccc(F)cc2)nnc1[C@@H](C)NS(=O)(=O)c1ccc(Cl)cc1` [Compound 11] the same measures were 85.5% and 45.1%.
As for `CCOc1nnc([C@@H](C)NS(=O)(=O)c2ccc(Br)c(F)c2)n1CC` [Compound 405], the inhibition at 10 µM is 90.4% in assay [1] (setting [3]) and 88.2% in assay [2] (setting [4]).
Taken in the same sequence, the figures for `CCOc1nnc([C@@H](C)NS(=O)(=O)c2ccc(Br)s2)n1CC` [Compound 400] were 92.8% and 84.8%.
For `CCn1c(OC)nnc1[C@@H](C)NS(=O)(=O)c1ccc(Cl)cc1F` [Compound 312], the inhibition at 10 µM in assay [1] (setting [3]) worked out at 95.9%; in assay [2] (setting [4]), 50.7%.
For `CCn1c(OC)nnc1[C@@H](C)NS(=O)(=O)c1ccc(Br)c(Br)c1` [Compound 272] the same measures were 102% and 94.3%.
Take `CCn1c(OC)nnc1[C@@H](C)NS(=O)(=O)CCc1cccc2ccccc12` [Compound 235]: the results for the inhibition at 10 µM in assay [1] (setting [3]) and in assay [2] (setting [4]) were 111% and 63.8%, respectively.
For `CCn1c(OCCCCCCN(C)C)nnc1[C@@H](C)NS(=O)(=O)c1ccc(Cl)cc1` [Compound 189], the inhibition at 10 µM in assay [1] (setting [3]) worked out at 105%; in assay [2] (setting [4]), 107%.
Consider `CCn1c(SCC(N)=O)nnc1[C@@H](C)NS(=O)(=O)c1ccc(Cl)cc1` [Compound 83], for which the figures for the inhibition at 10 µM in assay [1] (setting [3]) and in assay [2] (setting [4]) were 85.6% and 99.5%, respectively.
Turning to `CCn1c(OCc2ccccc2)nnc1[C@@H](C)NS(=O)(=O)c1ccc(Cl)cc1` [Compound 381], the figures for the inhibition at 10 µM in assay [1] (setting [3]) and in assay [2] (setting [4]) were 97.1% and 94.9%, respectively.
`CCn1c(OC(C)C)nnc1[C@@H](C)NS(=O)(=O)c1ccc(F)c(Cl)c1` [Compound 456]: the values for the inhibition at 10 µM in assay [1] (setting [5]) and in assay [2] (setting [6]) were 87.4% and 89%, respectively.
`CCn1c(OC)nnc1[C@@H](C)NS(=O)(=O)c1ccc(C)cc1` [Compound 243]: the inhibition at 10 µM was 102% in assay [1] (setting [3]) and 66% in assay [2] (setting [4]).
As for `CCn1c(OC)nnc1[C@@H](C)NS(=O)(=O)c1ccc(F)cc1` [Compound 223], the inhibition at 10 µM in assay [1] (setting [3]) came out at 95.5%; in assay [2] (setting [4]) it was 70.4%.
As for `CCCCCc1ccc(S(=O)(=O)N[C@H](C)c2nnc(OC)n2CC)cc1` [Compound 284], the results for the inhibition at 10 µM in assay [1] (setting [3]) and in assay [2] (setting [4]) were 88% and 41.5%, respectively.
Taken in the same sequence, the figures for `CCn1c(OC)nnc1[C@@H](C)NS(=O)(=O)c1cc(Cl)cc(Cl)c1` [Compound 266] were 97% and 83%.
With `CCn1c(SCC=C(C)C)nnc1[C@@H](C)NS(=O)(=O)c1ccc(Cl)cc1` [Compound 28], the values for the inhibition at 10 µM in assay [1] (setting [3]) and in assay [2] (setting [4]) were 93.1% and 82.8%, respectively.
Consider `CCn1c(OC)nnc1[C@@H](C)NS(=O)(=O)c1ccc2[nH]c(=O)oc2c1` [Compound 443], for which the inhibition at 10 µM in assay [1] (setting [3]) was determined as 31.3%; in assay [2] (setting [4]), 43%.
Take `CCn1c(SCc2ccc(SC)cc2)nnc1[C@@H](C)NS(=O)(=O)c1ccc(Cl)cc1` [Compound 60]: the inhibition at 10 µM stood at 90.3% in assay [1] (setting [3]) and 97.2% in assay [2] (setting [4]).
Taken in the same sequence, the figures for `CCn1c(OCCN(C)C)nnc1[C@@H](C)NS(=O)(=O)c1ccc(Cl)cc1` [Compound 187] were 82.9% and 46.4%.
For the compound `CCn1c(OC)nnc1[C@@H](C)NS(=O)(=O)c1ccc(I)cc1` [Compound 238], the values for the inhibition at 10 µM in assay [1] (setting [3]) and in assay [2] (setting [4]) were 99.1% and 79.1%, respectively.
For `CCn1c(OC)nnc1[C@@H](Cc1ccccc1)NS(=O)(=O)c1ccc(Cl)cc1` [Compound 390] the same measures were 101% and 99.8%.
For `CCn1c(OC)nnc1[C@@H](C)NS(=O)(=O)c1cccc2cnccc12` [Compound 365] the same measures were 81.7% and 41.8%.
In the case of `C=CCSc1nnc(C(Cc2ccccc2)NS(=O)(=O)c2ccc(F)cc2)n1CC` (stereo not drawn) [Compound 169], the inhibition at 10 µM stood at 67.5% in assay [1] (setting [3]) and 72.9% in assay [2] (setting [4]).
`CCn1c(SCCNC(=O)c2ccncc2)nnc1[C@@H](C)NS(=O)(=O)c1ccc(Cl)cc1` [Compound 74]: the inhibition at 10 µM in assay [1] (setting [3]) was 93.6%; in assay [2] (setting [4]) it was 109%.
Taken in the same sequence, the figures for `CCn1c(OC)nnc1[C@H](C)NS(=O)(=O)c1ccc(NC(C)=O)cc1` [Compound 198] were 92.5% and 46.7%.
For the compound `CCn1c(OC)nnc1[C@@H](C)NS(=O)(=O)c1cc(C)ccc1OC` [Compound 273], the results for the inhibition at 10 µM in assay [1] (setting [3]) and in assay [2] (setting [4]) were 94.3% and 68.4%, respectively.
With `CCn1c(SC(C)c2ccccc2)nnc1[C@@H](C)NS(=O)(=O)c1ccc(Cl)cc1` (stereo partly drawn) [Compound 41], the values for the inhibition at 10 µM in assay [1] (setting [3]) and in assay [2] (setting [4]) were 87.3% and 97.3%, respectively.
Turning to `CCOc1nnc([C@@H](C)NS(=O)(=O)c2ccc(F)c(C(F)(F)F)c2)n1CC` [Compound 399], the figures for the inhibition at 10 µM in assay [1] (setting [3]) and in assay [2] (setting [4]) were 88.5% and 90.9%, respectively.
Taken in the same sequence, the figures for `CCn1c(OC)nnc1[C@@H](C)NS(=O)(=O)c1ccc(Br)cc1F` [Compound 288] were 103% and 54.9%.
Taken in the same sequence, the figures for `CCn1c(SCCCC#Cc2ccccc2)nnc1[C@@H](C)NS(=O)(=O)c1ccc(Cl)cc1` [Compound 18] were 84.8% and 100%.
Taken in the same sequence, the figures for `C=CCSc1nnc(CNS(=O)(=O)c2ccc(Cl)cc2)n1CC` [Compound 104] were 99.5% and 42.1%.
Consider `CCOc1nnc([C@@H](C)NS(=O)(=O)c2ccc(F)c(F)c2)n1CC` [Compound 403], for which the inhibition at 10 µM in assay [1] (setting [3]) amounted to 86.1%; in assay [2] (setting [4]), 85.9%.
In the case of `CCOc1nnc([C@@H](C)NS(=O)(=O)c2ccc(C)c(F)c2)n1CC` [Compound 411], the values for the inhibition at 10 µM in assay [1] (setting [3]) and in assay [2] (setting [4]) were 95.9% and 81.8%, respectively.
As to `CCc1ccc(S(=O)(=O)N[C@H](C)c2nnc(OC(C)C)n2CC)cc1` [Compound 480], the figures for the inhibition at 10 µM in assay [1] (setting [5]) and in assay [2] (setting [6]) were 93.1% and 77.4%, respectively.
As for `CCn1c(OCC(F)(F)F)nnc1[C@@H](C)NS(=O)(=O)c1ccc2nsnc2c1` [Compound 499], the inhibition at 10 µM in assay [1] (setting [5]) was 107%; in assay [2] (setting [6]), 89.1%.
Regarding `CCn1c(SCC2CCCCC2)nnc1[C@@H](C)NS(=O)(=O)c1ccc(Cl)cc1` [Compound 25], the inhibition at 10 µM is 81.5% in assay [1] (setting [3]) and 77.8% in assay [2] (setting [4]).
On to `CCC#CCSc1nnc([C@@H](C)NS(=O)(=O)c2ccc(Cl)cc2)n1CC` [Compound 17], for which the results for the inhibition at 10 µM in assay [1] (setting [3]) and in assay [2] (setting [4]) were 85.5% and 90.6%, respectively.
For the compound `CCn1c(OC(C)C)nnc1[C@@H](C)NS(=O)(=O)c1cccc(Br)c1` [Compound 460], the inhibition at 10 µM was 94.5% in assay [1] (setting [5]) and 76.3% in assay [2] (setting [6]).
Regarding `CCn1c(OC)nnc1[C@@H](Cc1cccc(Cl)c1)NS(=O)(=O)c1ccc(Cl)cc1` [Compound 440], the values for the inhibition at 10 µM in assay [1] (setting [3]) and in assay [2] (setting [4]) were 95.1% and 102%, respectively.
Turning to `CCn1c(OC2CCCCC2)nnc1[C@@H](C)NS(=O)(=O)c1ccc(Cl)cc1` [Compound 388], the inhibition at 10 µM in assay [1] (setting [3]) amounted to 104%; in assay [2] (setting [4]), 103%.
For `CCn1c(OC)nnc1[C@@H](C)NS(=O)(=O)c1ccc(OC(F)F)cc1` [Compound 309] the same measures were 93.2% and 46.5%.
Taken in the same sequence, the figures for `CCn1c(OC)nnc1[C@@H](C)NS(=O)(=O)c1cccc2cccnc12` [Compound 240] were 93.4% and 70.3%.
Taken in the same sequence, the figures for `CCn1c(OC)nnc1[C@@H](C)NS(=O)(=O)c1ccc2ccccc2c1` [Compound 230] were 103% and 102%.
